Consider eleven compounds from ChEMBL document CHEMBL1201862, “PubChem BioAssay data set” (2004).

Among the test systems are HT-29; SK-MEL-5; OVCAR-5; NCI-H226; SF-268; UO-31; HL-60; KM12; SK-MEL-28; UACC-257; HOP-62; SN12C; COLO 205; HCT-15; NCI-H460; CCRF-CEM; M14; ACHN; OVCAR-8; OVCAR-4.
What all share (assay): NCI anticancer screen, dose series, 48 h

Each structure is given as a SMILES string.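 Compound exposure: 48 hours, 5 concentrations, 96-well plates. The concentration for 50% growth inhibition is given as GI50.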 Activity calls are given as the source filed them. Rule as the data show it: active = GI50 up to about 1.1 µM and inactive = higher.

As to `COc1ccc(-c2c3c(nc4nc(SC)nc(SC)c24)CCCC3)cc1OC`, the GI50 in the experiment on HT-29 was 36.6 µM (inactive); in the experiment on SK-MEL-5, 80.2 µM (inactive); in the experiment on OVCAR-5, > 100 µM (inactive); with NCI-H226, 56.6 µM (inactive); in the experiment on SF-268, 82.2 µM (inactive); with UO-31, 37.1 µM (inactive). Moreover, the GI50 in the experiment with HL-60 is 25.1 µM (inactive); with KM12 it was 81.3 µM (inactive); in the experiment on SK-MEL-28, 59.7 µM (inactive); in the experiment with UACC-257 it was > 100 µM (inactive); in the experiment with HOP-62, 46.8 µM (inactive); in the experiment with SN12C, > 100 µM (inactive). The GI50 in the experiment with COLO 205 was > 100 µM (inactive); in the experiment with HCT-15, 16 µM; with NCI-H460 it was 29.2 µM (inactive); in the experiment on CCRF-CEM, 21.3 µM (inactive); with M14, 81.7 µM (inactive); in the experiment with ACHN, 72.4 µM (inactive).

For the compound `NC12CCC(CC1=O)C2` (stereo not drawn), the GI50 in the experiment on HT-29, with SK-MEL-5, with OVCAR-5, in the experiment on NCI-H226, in the experiment with SF-268 and in the experiment on UO-31 was > 100 µM (inactive) throughout. Moreover, the GI50 in the experiment with HL-60, with KM12, in the experiment with SK-MEL-28, in the experiment with UACC-257, in the experiment with HOP-62 and in the experiment on SN12C was > 100 µM (inactive) throughout. The GI50 in the experiment with COLO 205 is > 100 µM (inactive); with HCT-15 it was over 100 µM; in the experiment with OVCAR-8 it was > 100 µM (inactive); in the experiment on CCRF-CEM, > 100 µM (inactive); in the experiment on M14 it was > 100 µM (inactive); in the experiment with OVCAR-4 it was > 100 µM (inactive). In addition, in the experiment on ACHN, the GI50 is > 100 µM (inactive).

Take `CO/C(=N\N=C\c1ccc(Cl)c(Cl)c1)c1ccncc1`: the GI50 with SK-MEL-5, in the experiment on OVCAR-5, in the experiment with NCI-H226, in the experiment on SF-268, in the experiment with UO-31 and in the experiment with HL-60 was > 10 µM (inactive) throughout. Further, the GI50 was > 10 µM (inactive) in the experiment with KM12; > 10 µM (inactive) in the experiment with SK-MEL-28; > 10 µM (inactive) with HOP-62; > 10 µM (inactive) in the experiment with SN12C; > 10 µM (inactive) in the experiment with COLO 205; over 10 µM with HCT-15. For the same compound, the GI50 with NCI-H460 is > 10 µM (inactive); with OVCAR-8, > 10 µM (inactive); in the experiment with CCRF-CEM it was > 10 µM (inactive); in the experiment with M14, > 10 µM (inactive); in the experiment on ACHN, 4.99 µM (inactive).

With `O=c1[nH]c(=O)n(C2CC(O)C(CO)O2)cc1C#Cc1cc(C(F)(F)F)cc(C(F)(F)F)c1` (stereo not drawn), the GI50 is > 31.8 µM (inactive) in the experiment on HT-29; > 27.4 µM (inactive) in the experiment with SK-MEL-5; > 100 µM (inactive) in the experiment with OVCAR-5; > 100 µM (inactive) with NCI-H226; 43.9 µM (inactive) in the experiment on SF-268; > 30.6 µM (inactive) with UO-31. The GI50 in the experiment on HL-60 was > 60.4 µM (inactive); with KM12, > 30.8 µM (inactive); with SK-MEL-28, > 31.7 µM (inactive); in the experiment on UACC-257, > 37.5 µM (inactive); with HOP-62 it was > 68.1 µM (inactive); in the experiment on SN12C, > 27.9 µM (inactive). Also, the GI50 in the experiment with COLO 205 was > 21.3 µM (inactive); in the experiment with HCT-15 it was over 50.7 µM; with CCRF-CEM, > 100 µM (inactive); in the experiment with M14, > 24.8 µM (inactive); in the experiment on OVCAR-4 it was > 29.4 µM (inactive); in the experiment on ACHN, > 29.4 µM (inactive).

`CO[C@]12S[C@@H]3CCCC[C@@]31C(C)(C)C(=O)N2c1ccccc1`: the GI50 with HT-29 is 47.4 µM (inactive); in the experiment with SK-MEL-5, 20.5 µM (inactive); in the experiment on OVCAR-5, > 100 µM (inactive); in the experiment on SF-268, 37.9 µM (inactive); in the experiment on UO-31, 91.4 µM (inactive); in the experiment on HL-60, 14.6 µM (inactive). In addition, the GI50 in the experiment on KM12 was 36.7 µM (inactive); with SK-MEL-28 it was 75.5 µM (inactive); in the experiment on UACC-257, 33.8 µM (inactive); in the experiment with HOP-62, 16.7 µM (inactive); with SN12C, 18.4 µM (inactive); in the experiment with COLO 205, 14.4 µM (inactive). In addition, the GI50 with HCT-15 is 29.1 µM; in the experiment on NCI-H460, 33 µM (inactive); in the experiment with OVCAR-8, 30.1 µM (inactive); with CCRF-CEM, 13.5 µM (inactive); with M14, 70 µM (inactive); in the experiment with ACHN, 37.4 µM (inactive).

With `CC(=O)N1N=C(c2ccc3ccccc3c2O)CC1c1cccs1` (stereo not drawn), the GI50 with HT-29 was 21.9 µM (inactive); in the experiment with SK-MEL-5 it was 18.3 µM (inactive); with OVCAR-5, 32.4 µM (inactive); in the experiment with NCI-H226, 40.1 µM (inactive); in the experiment with SF-268, 12.3 µM (inactive); with UO-31, 9.95 µM (inactive). For the same compound, the GI50 in the experiment on KM12 is 14.4 µM (inactive); in the experiment on SK-MEL-28, 37.2 µM (inactive); in the experiment with UACC-257 it was 34.8 µM (inactive); in the experiment with HOP-62, 16.3 µM (inactive); in the experiment with SN12C, 12.1 µM (inactive); with COLO 205, 20.2 µM (inactive). Moreover, the GI50 in the experiment on HCT-15 was 14 µM; in the experiment on NCI-H460 it was 8.49 µM (inactive); in the experiment with OVCAR-8, 16.9 µM (inactive); with CCRF-CEM, 4.04 µM (inactive); in the experiment on M14, 14.4 µM (inactive); in the experiment on OVCAR-4 it was 27.8 µM (inactive). For the same compound, the GI50 in the experiment with ACHN is 15.6 µM (inactive).

With `COc1ccc(C[C@H](N)C(=O)N2C[C@H](CO)C[C@H](n3cnc4c(N(C)C)ncnc43)C2)cc1`, the GI50 in the experiment on HT-29, in the experiment on SK-MEL-5, in the experiment on OVCAR-5, with NCI-H226, in the experiment on SF-268 and in the experiment with UO-31 was > 100 µM (inactive) each time. Besides, the GI50 is 73.5 µM (inactive) in the experiment with HL-60; > 100 µM (inactive) in the experiment with KM12; > 100 µM (inactive) in the experiment with SK-MEL-28; > 100 µM (inactive) in the experiment with HOP-62; > 100 µM (inactive) in the experiment with SN12C; > 100 µM (inactive) in the experiment with COLO 205. The GI50 is over 100 µM in the experiment with HCT-15; > 100 µM (inactive) in the experiment with NCI-H460; > 100 µM (inactive) in the experiment with OVCAR-8; > 100 µM (inactive) in the experiment with CCRF-CEM; > 100 µM (inactive) in the experiment with M14; > 100 µM (inactive) in the experiment on OVCAR-4. The GI50 in the experiment on ACHN is > 100 µM (inactive).

For the compound `O=c1cc(-c2nc3ccccc3[nH]2)[nH]c2nc(-c3nc4ccccc4[nH]3)cc(-c3ccc(Cl)cc3)c12`, the GI50 in the experiment with HT-29 is 20 µM (inactive); in the experiment on SK-MEL-5, 15.7 µM (inactive); in the experiment with OVCAR-5 it was 29 µM (inactive); with NCI-H226 it was 16.9 µM (inactive); with SF-268, 15.8 µM (inactive); in the experiment on UO-31 it was 11.2 µM (inactive). In addition, the GI50 was 24.9 µM (inactive) with HL-60; 22 µM (inactive) with KM12; 23.7 µM (inactive) in the experiment with UACC-257; 24.4 µM (inactive) with HOP-62; 16.5 µM (inactive) in the experiment on SN12C; 12.1 µM (inactive) in the experiment with COLO 205. Besides, the GI50 with HCT-15 is 10 µM; with NCI-H460, 16.3 µM (inactive); with OVCAR-8, 28.6 µM (inactive); with CCRF-CEM, 24.7 µM (inactive); in the experiment with M14, 23.8 µM (inactive); in the experiment on OVCAR-4 it was 26.1 µM (inactive). In addition, the GI50 in the experiment on ACHN was 16.6 µM (inactive).

`CCCN(CCC)CCc1ccc(OC2=CCN(C)CC2)cc1`: the GI50 was 16 µM (inactive) in the experiment with HT-29; 32.3 µM (inactive) in the experiment on SK-MEL-5; > 100 µM (inactive) in the experiment with OVCAR-5; > 100 µM (inactive) in the experiment on NCI-H226; 86.1 µM (inactive) in the experiment on SF-268; 23.6 µM (inactive) with UO-31. The GI50 was 35.8 µM (inactive) with HL-60; 30.4 µM (inactive) in the experiment with KM12; 35.3 µM (inactive) with SK-MEL-28; 20.3 µM (inactive) with UACC-257; > 100 µM (inactive) in the experiment on HOP-62; > 100 µM (inactive) in the experiment with SN12C. The GI50 in the experiment on COLO 205 was 50.6 µM (inactive); with HCT-15, 36.9 µM; in the experiment on OVCAR-8, 36.9 µM (inactive); in the experiment with CCRF-CEM it was 93.5 µM (inactive); in the experiment on M14, 15.7 µM (inactive); with OVCAR-4, > 100 µM (inactive). In the experiment on ACHN, the GI50 was 95.5 µM (inactive).

`OC[C@@H](O)[C@H]1NC[C@@H](O)[C@H]1O`: the GI50 in the experiment with HT-29, with SK-MEL-5, with OVCAR-5, in the experiment on SF-268, in the experiment with UO-31 and with HL-60 was > 100 µM (inactive) each time. The GI50 with KM12, in the experiment on SK-MEL-28, in the experiment with UACC-257, in the experiment with HOP-62, with SN12C and in the experiment with COLO 205 was > 100 µM (inactive) throughout. For the same compound, the GI50 in the experiment on HCT-15 is over 100 µM; in the experiment with NCI-H460, > 100 µM (inactive); in the experiment on OVCAR-8 it was > 100 µM (inactive); in the experiment with CCRF-CEM, > 100 µM (inactive); in the experiment on M14, > 100 µM (inactive); in the experiment on OVCAR-4 it was > 100 µM (inactive). Besides, in the experiment on ACHN, the GI50 is > 100 µM (inactive).

Turning to `O=c1c(C(c2ccccn2)c2c(O)oc3cc(O)ccc3c2=O)c(O)oc2cc(O)ccc12`, the GI50 in the experiment with HT-29, in the experiment with SK-MEL-5, in the experiment on OVCAR-5, in the experiment on NCI-H226, in the experiment with SF-268 and in the experiment on UO-31 was > 100 µM (inactive) throughout. Moreover, the GI50 in the experiment with KM12, with SK-MEL-28, in the experiment on UACC-257, in the experiment on HOP-62, with SN12C and with COLO 205 was > 100 µM (inactive) each time. Besides, the GI50 with HCT-15 is over 100 µM; in the experiment with NCI-H460 it was > 100 µM (inactive); in the experiment with OVCAR-8, 44.2 µM (inactive); in the experiment with CCRF-CEM, > 100 µM (inactive); in the experiment with M14, > 100 µM (inactive); in the experiment on ACHN it was > 100 µM (inactive).
